What all share (assay type): cell-based
The subject of one experiment is C3H10T(1/2) cells. Description: C3H10T(1/2) assay for Hh pathway activation (alkaline phosphatase). The following applies: Mus musculus, C3H 10T1/2; Shh-induced differentiation, alkaline phosphatase; read-out: IC50 (uM) Shh/C3H10T[1/2] cells. As to the method: C3H10T(1/2) assay for Hh pathway activation. C3H10T(1/2) cells (ATCC) were plated into 96-well plates using DMEM containing 10% FBS, 100 U/mL penicillin, 0.1 mg/mL streptomycin, 5% Shh-N-conditioned medium, and various concentrations of the Hh pathway inhibitors. After approximately 40 h, the cells were washed with PBS and lysed in 50 μL of buffer containing 50 mM Tris-HCl, pH 9.5, 150 mM NaCl, 5 mM MgCl2, and 1% Triton X-100. Alkaline phosphatase activities in the cell lysates were quantified by adding 10 μL of the lysate to 50 μL of CDP-Star chemiluminescence reagent (Perkin Elmer) and measuring the resulting chemiluminescence on a Veritas microplate luminometer.

A further experiment has as its system Hh pathway. Nature of the experiment: Shh-EGFP assay for Hh pathway activation. The following applies: Shh-N-conditioned medium; HPIs at ten-fold their Shh-LIGHT2 IC50 or 30 μM, whichever lower. As for the experimental part: Shh-EGFP assay for Hh pathway activation. A Gli-dependent enhanced green fluorescent protein reporter (Shh-EGFP) was generated by excising firefly luciferase cDNA from the 8XGliBs vector using NcoI/Hpal, and ligating in EGFP cDNA excised from the pEGFP-C1 vector (Clontech) by NcoI/Af/II digestion. […] The cells were grown to confluency and treated with DMEM containing 0.5% CS, 100 U/mL penicillin, 0.1 mg/mL streptomycin, and 5% Shh-N-conditioned medium for 30 h. Following Shh-N treatment, the adherent cultures were dissociated into single cells with 0.05% Trypsin-EDTA (300 μL/well; Invitrogen) for 5 min. The cells were then suspended in 1 mL of PBS containing 1% CS and sorted on a BD FACSAria (excitation: 488 nm; emission: 530/30 nm) to enrich for cells expressing EGFP in a Shh-N-responsive manner. […] To identify Shh-EGFP clones with maximum Shh-N-responsiveness, individual lines were seeded into 24-well plates (45,000 cell/well) and cultured for 48 h. The cells were then treated with DMEM containing 0.5% CS, 100 U/mL pencillin, 0.1 mg/mL streptomycin or the culture medium plus 5% Shh-N-conditioned medium. After 30 h, the adherent cultures were treated with 0.05% trypsin-EDTA (150 μL/well; Invitrogen) for 5 min to dissociate them into single cells. The cells were then resuspended in 500 μL of PBS containing 1% CS and analyzed on a BD FACSCalibur (excitation: 488 nm; emission: 530/30 nm). 10,000 cells were used to assess EGFP expression levels as a measure of Hh pathway activation, and the data was analyzed using FlowJo software (Tree Star). Clones with low basal EGFP levels and maximum Shh-Ninduced EGFP expression were selected for further use. To assess the inhibitory activities of the HPIs in the Shh-EGFP cells, a clonal line with maximum Shh-responsiveness was cultured in 24-well plates as described above. […] The resulting EGFP levels were then evaluated by FACS and quantified using the FlowJo software.

The next experiment concerns NIH-3T3 cells. Nature of the experiment: Microtubule cytoskeleton staining of HPI-treated NIH-3T3 cells. As to conditions: tubulin antibody staining. As to the method:
Immunostaining of FLAG-Gli lines and NIH-3T3 cells. The FLAG-Gli1-expressing or FLAG-Gli2-expressing clonal cell lines were seeded into 24-well plates (80,000 cells/well) containing poly-D-lysine-coated 12-mm glass coverslips. […] The cells were subsequently fixed in 4% paraformaldehyde for 10 min at room temperature followed by treatment with methanol at −20° C. for 2 to 5 min. The cells were washed with PBS, permeabilized with 0.2% Triton X-100 for 2 to 5 min, and then blocked with PBS containing 2% BSA for 3 h at room temperature. The coverslips were then treated with mouse anti-FLAG M2 antibody (Sigma; 1:1,000 dilution in blocking buffer) and rabbit anti-Arl13b (10) (1:1,000 dilution in blocking buffer) for 3 h at room temperature and washed 3×5 min with PBS. The coverslips were incubated next with Alexa Fluor 594-conjugated goat anti-mouse IgG and Alexa Fluor 488-conjugated donkey anti-rabbit IgG antibodies (Invitrogen; 1:1,000 dilutions in blocking buffer) for 2 h at room temperature. After washes with PBS and a 5-min incubation with 4,6-diamidino-2-phenylindole (DAPI), the samples were mounted using Prolong Gold (Invitrogen) and imaged with an upright Leica DM4500B compound microscope. In order to quantify ciliary Gli2 localization, a circular region with diameter equal to the average width of cilia as determined by the anti-Arl13b antibody staining was manually placed at the distal end of each cilium. Regions were transferred from the anti-Arl13b antibody image to the anti-FLAG antibody image, and FLAG staining intensities within those areas were assessed. Between 40 and 80 cilia were analyzed for each condition. To normalize ciliary FLAG-Gli2 levels with respect to compound-dependent changes in total FLAG-Gli2 levels, the absolute average intensities for each condition were divided by the fold change in FLAG-Gli2 levels, as determined by the quantitative immunoblotting described above. Quantification of ciliary FLAG-Gli1 levels was performed in an analogous manner. Since HPI-4 perturbs primary cilia formation, only Arl13b-positive structures that could be clearly identified as cilia were used for Gli protein quanitification in HPI-4-treated cells. To assess cytoplasmic microtubule structures in cells treated with the HPIs, NIH-3T3 cells were cultured on poly-D-lysine-coated 12-mm glass coverslip, treated with the HPIs, and fixed with 4% paraformalehyde as described above. In place of the methanol treatment, the cells were permeabilitized with PBS containing 0.1% Triton X-100 for 1 min. Washing, blocking, and antibody incubation steps were then conducted as before, using mouse anti-<-tubulin (DM1-A, Sigma, 1:2,000 in blocking buffer). Secondary antibody treatments, DAPI staining, mounting, and imaging were then conducted as described above.

The target in another experiment is T1, Gli2 (Mus musculus, UniProt Q0VGT2).
T1 construct: expressed in transfected cells; host or cells: NIH-3T3
T1 sequence (Q0VGT2 whole entry): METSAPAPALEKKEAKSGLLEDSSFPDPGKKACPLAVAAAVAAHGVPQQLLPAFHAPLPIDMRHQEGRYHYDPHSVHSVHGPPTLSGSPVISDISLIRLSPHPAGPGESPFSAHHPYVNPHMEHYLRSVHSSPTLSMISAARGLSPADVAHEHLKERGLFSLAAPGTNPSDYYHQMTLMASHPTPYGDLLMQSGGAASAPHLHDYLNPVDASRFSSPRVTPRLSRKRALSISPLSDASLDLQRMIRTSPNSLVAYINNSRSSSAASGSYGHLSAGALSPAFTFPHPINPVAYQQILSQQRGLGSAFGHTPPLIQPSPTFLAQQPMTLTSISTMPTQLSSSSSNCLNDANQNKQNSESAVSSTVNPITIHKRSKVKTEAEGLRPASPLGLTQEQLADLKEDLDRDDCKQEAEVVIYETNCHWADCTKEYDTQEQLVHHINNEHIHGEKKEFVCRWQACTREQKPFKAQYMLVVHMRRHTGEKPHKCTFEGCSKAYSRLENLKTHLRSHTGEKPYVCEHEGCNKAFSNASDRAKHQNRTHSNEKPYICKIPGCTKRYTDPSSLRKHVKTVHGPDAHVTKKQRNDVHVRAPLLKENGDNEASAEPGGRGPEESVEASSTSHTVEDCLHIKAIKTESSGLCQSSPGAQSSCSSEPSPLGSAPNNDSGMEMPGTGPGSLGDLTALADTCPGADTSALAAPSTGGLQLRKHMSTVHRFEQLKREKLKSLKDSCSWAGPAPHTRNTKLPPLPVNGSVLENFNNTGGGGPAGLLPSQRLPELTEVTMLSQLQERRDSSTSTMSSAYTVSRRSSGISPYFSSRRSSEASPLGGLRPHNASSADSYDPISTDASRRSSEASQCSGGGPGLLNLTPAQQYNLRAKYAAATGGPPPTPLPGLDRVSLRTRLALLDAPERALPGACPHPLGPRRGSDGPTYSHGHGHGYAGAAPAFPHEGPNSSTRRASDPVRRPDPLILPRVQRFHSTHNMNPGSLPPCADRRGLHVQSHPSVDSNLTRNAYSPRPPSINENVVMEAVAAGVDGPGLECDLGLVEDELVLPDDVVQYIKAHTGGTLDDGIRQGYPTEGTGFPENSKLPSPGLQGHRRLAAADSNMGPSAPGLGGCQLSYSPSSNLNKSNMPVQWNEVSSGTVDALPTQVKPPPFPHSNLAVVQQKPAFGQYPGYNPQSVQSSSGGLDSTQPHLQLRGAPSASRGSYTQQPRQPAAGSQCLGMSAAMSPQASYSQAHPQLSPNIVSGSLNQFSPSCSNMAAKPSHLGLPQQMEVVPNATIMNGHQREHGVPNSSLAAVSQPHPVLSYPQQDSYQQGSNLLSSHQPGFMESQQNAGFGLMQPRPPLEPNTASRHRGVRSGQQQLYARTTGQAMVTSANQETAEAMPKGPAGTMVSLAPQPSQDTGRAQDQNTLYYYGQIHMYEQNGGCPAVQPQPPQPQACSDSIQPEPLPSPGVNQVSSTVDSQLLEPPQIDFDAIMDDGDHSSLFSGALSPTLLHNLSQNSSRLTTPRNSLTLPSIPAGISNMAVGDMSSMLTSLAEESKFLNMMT
Description: Hh pathway activation mediated by overexpression of Gli2. As to the method:
Hh pathway activation mediated by the overexpression of Gli, Gli2, Gli2αPKA, or Gli2αGSK. […] The cells were co-transfected the following day with 220 ng/well pcDNA-derived Gli1, Gli2, or Gli2 phosphosite mutant expression vectors and 80 ng/well of a 1:15 mixture of phRLTK (Promega) and 8XGIiBS-FL. After transfection, cells were grown to confluence (approximately 48 h). The cell were then incubated for an additional 28-32 h in DMEM containing 0.5% CS, 100 U/mL penicillin, 0.1 mg/mL streptomycin, and either DMSO, 50 μM forskolin, 50 μM LY294002, or various concentrations of the HPIs. Firefly and Renilla luciferase activities were measured using a dual luciferase kit and a Veritas microplate luminometer.

Entries after “also recorded” stand apart in the source; their conditions may differ. Bounds are passed on as bounds.

For `N#CC(C(=O)c1ccc(Cl)cc1Cl)=C1NC(=O)c2ccccc2N1` [Compound 18], the IC50 is 0.7 µM with C3H10T(1/2) cells and greater than 10 µM at Gli2 (NIH-3T3 cells overexpressing Gli2, read-out: IC50 (uM) Gli2 Transfected). Moreover, the “% Inhibition Shh-GFP cells” value in the experiment with Hh pathway is given as 80%. Moreover, the Microtubule disruption result in the experiment on NIH-3T3 cells is recorded as “No”. In addition, on Gli2 (NIH-3T3 cells, Gli-dependent firefly luciferase, listed as HPI-4), the “Inhibition of Hh pathway activity induced by Gli2 overexpression” value is “no significant activity; also recorded: inactive”.

Source of the values: patent US8119640B2, “Hedgehog pathway antagonists methods of use” (The Board of Trustees of the Leland Stanford Junior …, priority 2008, dated 2012).
